Data: PMC9090415, “Discovery of small molecule inhibitors of Plasmodium falciparum apicoplast DNA polymerase” (Journal of Enzyme Inhibition and Medicinal Chemistry, 2022)
Read-outs that look alike come from different tables or passages of the source.

Target: P. falciparum apicoplast DNA polymerase (Pf-apPOL) (Plasmodium falciparum, UniProt Q8ILY1)
Test: Fluorescence-based high-throughput DNA polymerase assay (molecular beacon), primary screen and dose-response;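 on % inhibition Apol 40': compound concentration given in µM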
Assay type: biochemical
Details: for DNA Pol: 90 min, 10 µM
Procedure, shortened: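 Single-point screening used 10 µM compound with 20 nM polymerase, 20 nM hairpin substrate and 6 µM dNTPs for 90 min at 25 °C. Confirmatory titrations (2.5–80 µM) followed fluorescence at three times, and IC50 was derived from a fit including a cooperativity term n.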

[1] = 'DNA Pol' of the 186 hits list (primary screen value)

P. falciparum apicoplast DNA polymerase (Pf-apPOL), sequence (Q8ILY1 entry or part of it): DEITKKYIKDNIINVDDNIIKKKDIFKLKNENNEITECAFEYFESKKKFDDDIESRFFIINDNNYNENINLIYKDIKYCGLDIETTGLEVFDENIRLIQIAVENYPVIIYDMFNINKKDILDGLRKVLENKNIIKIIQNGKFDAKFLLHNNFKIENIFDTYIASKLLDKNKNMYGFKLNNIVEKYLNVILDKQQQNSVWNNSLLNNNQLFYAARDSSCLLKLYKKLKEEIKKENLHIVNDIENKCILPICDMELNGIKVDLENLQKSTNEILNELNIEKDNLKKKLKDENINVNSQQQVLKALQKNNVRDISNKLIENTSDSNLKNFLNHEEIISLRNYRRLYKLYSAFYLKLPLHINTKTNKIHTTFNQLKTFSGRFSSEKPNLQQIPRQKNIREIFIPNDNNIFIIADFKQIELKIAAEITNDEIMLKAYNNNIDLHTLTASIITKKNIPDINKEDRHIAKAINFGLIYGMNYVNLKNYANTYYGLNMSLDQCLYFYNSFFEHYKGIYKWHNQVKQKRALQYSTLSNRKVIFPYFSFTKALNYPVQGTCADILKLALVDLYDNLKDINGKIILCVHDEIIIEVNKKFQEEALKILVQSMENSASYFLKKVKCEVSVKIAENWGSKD

O=C1c2ccccc2C(=O)N1Oc1ccc([N+](=O)[O-])c([N+](=O)[O-])c1 [Molecule 66, O=N(=O)c1cc(ccc1N(=O)=O)ON1C(=O)c2c(C1=O)cccc2]
DNA Pol [1]: 72 | DNA Pol (DNA Pol (primary screen value)): 72 | % inhibition Apo pol 10' (DRC-1, concentration 2.5): 7.12% | % inhibition Apo pol 10' (DRC-1, concentration 5): 12.8299% | % inhibition Apo pol 10' (DRC-1, concentration 10): 14.545% | % inhibition Apo pol 10' (DRC-1, concentration 20): 24.992% | % inhibition Apo pol 10' (DRC-1, concentration 40): 53.6709% | % inhibition Apo pol 10' (DRC-1, concentration 80): 72.2964% | % inhibition Apol 90' (DRC-1, concentration 2.5): 2.278% | % inhibition Apol 90' (DRC-1, concentration 5): 9.738% | % inhibition Apol 90' (DRC-1, concentration 10): 13.1271% | % inhibition Apol 90' (DRC-1, concentration 20): 22.9091% | % inhibition Apol 90' (DRC-1, concentration 40): 49.4397% | % inhibition Apol 90' (DRC-1, concentration 80): 69.1434% | % inhibition apPOL 180' (DRC-1, concentration 2.5): -1.453% | % inhibition apPOL 180' (DRC-1, concentration 5): 3.779% | % inhibition apPOL 180' (DRC-1, concentration 10): 7.291% | % inhibition apPOL 180' (DRC-1, concentration 20): 17.0641% | % inhibition apPOL 180' (DRC-1, concentration 40): 43.6341% | % inhibition apPOL 180' (DRC-1, concentration 80): 66.4384% | % inhibition Apo pol 5' (DRC-2, concentration 2.5): 1.26% | % inhibition Apo pol 5' (DRC-2, concentration 5): 6% | % inhibition Apo pol 5' (DRC-2, concentration 10): 12% | % inhibition Apo pol 5' (DRC-2, concentration 20): 27% | % inhibition Apo pol 5' (DRC-2, concentration 40): 40% | % inhibition Apo pol 5' (DRC-2, concentration 80): 51% | % inhibition Apol 40' (DRC-2, concentration 2.5): 6.34% | % inhibition Apol 40' (DRC-2, concentration 5): 11% | % inhibition Apol 40' (DRC-2, concentration 10): 18% | % inhibition Apol 40' (DRC-2, concentration 20): 35% | % inhibition Apol 40' (DRC-2, concentration 40): 48% | % inhibition Apol 40' (DRC-2, concentration 80): 62% | % inhibition ApPOL 90' (DRC-2, concentration 2.5): 5% | % inhibition ApPOL 90' (DRC-2, concentration 5): 9.49% | % inhibition ApPOL 90' (DRC-2, concentration 10): 17% | % inhibition ApPOL 90' (DRC-2, concentration 20): 36% | % inhibition ApPOL 90' (DRC-2, concentration 40): 50% | % inhibition ApPOL 90' (DRC-2, concentration 80): 66% | % inhibition apPOL 180' (DRC-2, concentration 2.5): 3% | % inhibition apPOL 180' (DRC-2, concentration 5): 5.62% | % inhibition apPOL 180' (DRC-2, concentration 10): 13% | % inhibition apPOL 180' (DRC-2, concentration 20): 32% | % inhibition apPOL 180' (DRC-2, concentration 40): 48% | % inhibition apPOL 180' (DRC-2, concentration 80): 68%

O=C(O)c1ccc(-c2nc3cc(-c4ccc5nc(-c6ccc(C(=O)O)cc6)[nH]c5c4)ccc3[nH]2)cc1 [Molecule 1]
IC50 (read-out: IC50 Pf-apPOL, Table 2): 5.9 ± 0.9 µM | IC50 (supplemental file 2, sheet IC50 nontoxic compounds, Pf-apPOL): 5.92 µM

CC(NC(=O)Cc1cc(=O)[nH]c(SCc2cccc(Cl)c2)n1)c1ccccc1 (centres unmarked) [Molecule 67, O=C(NC(c1ccccc1)C)Cc1nc(SCc2cccc(c2)Cl)[nH]c(=O)c1]
DNA Pol [1]: 46 | DNA Pol (DNA Pol (primary screen value)): 46 | % inhibition Apo pol 10' (DRC-1, concentration 2.5): -1.6671% | % inhibition Apo pol 10' (DRC-1, concentration 5): 0% | % inhibition Apo pol 10' (DRC-1, concentration 10): 11.4347% | % inhibition Apo pol 10' (DRC-1, concentration 20): 48.0532% | % inhibition Apo pol 10' (DRC-1, concentration 40): 64.8608% | % inhibition Apo pol 10' (DRC-1, concentration 80): 85.5547% | % inhibition Apol 90' (DRC-1, concentration 2.5): -5.257% | % inhibition Apol 90' (DRC-1, concentration 5): -6.461% | % inhibition Apol 90' (DRC-1, concentration 10): 1.923% | % inhibition Apol 90' (DRC-1, concentration 20): 26.5805% | % inhibition Apol 90' (DRC-1, concentration 40): 38.5858% | % inhibition Apol 90' (DRC-1, concentration 80): 80.0323% | % inhibition apPOL 180' (DRC-1, concentration 2.5): -10.8024% | % inhibition apPOL 180' (DRC-1, concentration 5): -10.8936% | % inhibition apPOL 180' (DRC-1, concentration 10): -3.791% | % inhibition apPOL 180' (DRC-1, concentration 20): 10.3203% | % inhibition apPOL 180' (DRC-1, concentration 40): 18.891% | % inhibition apPOL 180' (DRC-1, concentration 80): 71.4283% | % inhibition Apo pol 5' (DRC-2, concentration 2.5): 0.743% | % inhibition Apo pol 5' (DRC-2, concentration 5): -0.394% | % inhibition Apo pol 5' (DRC-2, concentration 10): 30% | % inhibition Apo pol 5' (DRC-2, concentration 20): 33% | % inhibition Apo pol 5' (DRC-2, concentration 40): 27% | % inhibition Apo pol 5' (DRC-2, concentration 80): 20% | % inhibition Apol 40' (DRC-2, concentration 2.5): 0.551% | % inhibition Apol 40' (DRC-2, concentration 5): 0.92% | % inhibition Apol 40' (DRC-2, concentration 10): 36% | % inhibition Apol 40' (DRC-2, concentration 20): 49% | % inhibition Apol 40' (DRC-2, concentration 40): 52% | % inhibition Apol 40' (DRC-2, concentration 80): 55% | % inhibition ApPOL 90' (DRC-2, concentration 2.5): 0.178% | % inhibition ApPOL 90' (DRC-2, concentration 5): -1% | % inhibition ApPOL 90' (DRC-2, concentration 10): 32% | % inhibition ApPOL 90' (DRC-2, concentration 20): 48% | % inhibition ApPOL 90' (DRC-2, concentration 40): 54% | % inhibition ApPOL 90' (DRC-2, concentration 80): 64% | % inhibition apPOL 180' (DRC-2, concentration 2.5): -3% | % inhibition apPOL 180' (DRC-2, concentration 5): -6% | % inhibition apPOL 180' (DRC-2, concentration 10): 20% | % inhibition apPOL 180' (DRC-2, concentration 20): 37% | % inhibition apPOL 180' (DRC-2, concentration 40): 49% | % inhibition apPOL 180' (DRC-2, concentration 80): 70%

O=C(c1c[nH]c2ncccc12)N1CCCC1 [Molecule 63, O=C(c1c[nH]c2c1cccn2)N1CCCC1]
DNA Pol ("DNA Pol" of the 186 hits list (screen value)): 28 | % inhibition Apo pol 10' (DRC-1, concentration 2.5): 5.209% | % inhibition Apo pol 10' (DRC-1, concentration 5): 6.34% | % inhibition Apo pol 10' (DRC-1, concentration 10): 30.6254% | % inhibition Apo pol 10' (DRC-1, concentration 20): 50.0486% | % inhibition Apo pol 10' (DRC-1, concentration 40): 59.3862% | % inhibition Apo pol 10' (DRC-1, concentration 80): 75.2483% | % inhibition Apol 90' (DRC-1, concentration 2.5): 5.771% | % inhibition Apol 90' (DRC-1, concentration 5): 3.06% | % inhibition Apol 90' (DRC-1, concentration 10): 21.9015% | % inhibition Apol 90' (DRC-1, concentration 20): 39.4898% | % inhibition Apol 90' (DRC-1, concentration 40): 47.3849% | % inhibition Apol 90' (DRC-1, concentration 80): 77.404% | % inhibition apPOL 180' (DRC-1, concentration 2.5): 3.366% | % inhibition apPOL 180' (DRC-1, concentration 5): -1.279% | % inhibition apPOL 180' (DRC-1, concentration 10): 12.4312% | % inhibition apPOL 180' (DRC-1, concentration 20): 25.4337% | % inhibition apPOL 180' (DRC-1, concentration 40): 33.3219% | % inhibition apPOL 180' (DRC-1, concentration 80): 74.0045% | % inhibition Apo pol 5' (DRC-2, concentration 2.5): 3% | % inhibition Apo pol 5' (DRC-2, concentration 5): 10% | % inhibition Apo pol 5' (DRC-2, concentration 10): 29% | % inhibition Apo pol 5' (DRC-2, concentration 20): 40% | % inhibition Apo pol 5' (DRC-2, concentration 40): 42% | % inhibition Apo pol 5' (DRC-2, concentration 80): 32% | % inhibition Apol 40' (DRC-2, concentration 2.5): 3.74% | % inhibition Apol 40' (DRC-2, concentration 5): 11% | % inhibition Apol 40' (DRC-2, concentration 10): 33% | % inhibition Apol 40' (DRC-2, concentration 20): 50% | % inhibition Apol 40' (DRC-2, concentration 40): 62% | % inhibition Apol 40' (DRC-2, concentration 80): 58% | % inhibition ApPOL 90' (DRC-2, concentration 2.5): 2.81% | % inhibition ApPOL 90' (DRC-2, concentration 5): 10% | % inhibition ApPOL 90' (DRC-2, concentration 10): 30% | % inhibition ApPOL 90' (DRC-2, concentration 20): 49% | % inhibition ApPOL 90' (DRC-2, concentration 40): 66% | % inhibition ApPOL 90' (DRC-2, concentration 80): 65% | % inhibition apPOL 180' (DRC-2, concentration 2.5): -1% | % inhibition apPOL 180' (DRC-2, concentration 5): 3.46% | % inhibition apPOL 180' (DRC-2, concentration 10): 21% | % inhibition apPOL 180' (DRC-2, concentration 20): 41% | % inhibition apPOL 180' (DRC-2, concentration 40): 65% | % inhibition apPOL 180' (DRC-2, concentration 80): 68% | DNA Pol (primary screen value, DNA Pol): 28
